Laboratory results published in ChEMBL document CHEMBL1131986, “Structure-activity relationships of biphenyl tetrazoles as metallo-beta-lactamase inhibitors” (Bioorg Med Chem Lett, 1999).

Experiments:
Dipeptidase 1 = molecular target: T1, Dipeptidase 1 (Sus scrofa, UniProt P22412); assay: In vitro apparent inhibition constant of porcine renal Dehydropeptidase-1.; conditions: read-out: Ki app
T1 sequence (P22412 whole entry): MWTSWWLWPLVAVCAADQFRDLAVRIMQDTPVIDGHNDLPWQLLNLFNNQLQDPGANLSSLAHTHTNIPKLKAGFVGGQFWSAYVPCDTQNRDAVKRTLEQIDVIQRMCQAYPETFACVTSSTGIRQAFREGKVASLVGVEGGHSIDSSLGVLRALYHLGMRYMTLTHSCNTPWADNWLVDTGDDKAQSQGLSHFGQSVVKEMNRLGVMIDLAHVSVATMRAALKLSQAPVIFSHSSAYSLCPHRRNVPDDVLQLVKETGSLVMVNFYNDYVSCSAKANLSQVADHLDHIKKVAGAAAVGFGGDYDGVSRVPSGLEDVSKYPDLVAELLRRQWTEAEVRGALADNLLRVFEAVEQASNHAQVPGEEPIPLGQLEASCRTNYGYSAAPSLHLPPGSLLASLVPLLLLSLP

[1] = molecular target: Metallo-beta-lactamase type 2 (Bacteroides fragilis, UniProt P25910); assay: Inhibition of metallo-beta-lactamase (MBL) from Bacteroides fragilis.
Metallo-beta-lactamase type 2, sequence (P25910 whole entry): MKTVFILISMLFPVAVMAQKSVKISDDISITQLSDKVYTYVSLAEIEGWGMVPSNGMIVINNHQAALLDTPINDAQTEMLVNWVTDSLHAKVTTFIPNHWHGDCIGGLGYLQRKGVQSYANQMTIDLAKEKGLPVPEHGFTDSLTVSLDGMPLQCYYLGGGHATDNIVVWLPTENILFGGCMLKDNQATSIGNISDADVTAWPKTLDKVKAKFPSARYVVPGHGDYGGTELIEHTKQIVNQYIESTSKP

Beta-lactamase = Beta-lactamase (Pseudomonas aeruginosa, UniProt Q79MP6); assay: Inhibition of metallo-beta-lactamase (MBL) from Pseudomonas aeruginosa mediated by the plasmid-borne IMP-1 enzyme.
Beta-lactamase, sequence (Q79MP6 whole entry): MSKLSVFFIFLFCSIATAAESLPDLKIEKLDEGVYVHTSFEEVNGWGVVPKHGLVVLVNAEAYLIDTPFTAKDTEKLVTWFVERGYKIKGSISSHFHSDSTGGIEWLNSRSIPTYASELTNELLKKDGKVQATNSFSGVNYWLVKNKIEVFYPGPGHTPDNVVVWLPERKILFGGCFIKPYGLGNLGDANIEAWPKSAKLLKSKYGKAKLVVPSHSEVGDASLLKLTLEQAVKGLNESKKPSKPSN

## CCCCc1nn(-c2ccccc2Cl)c(C(=O)OCC)c1Cc1ccc(-c2ccccc2-c2nnn[nH]2)cc1
Dipeptidase 1
  Ki: 250 µM
[1]
  IC50: 170 µM
Beta-lactamase
  IC50: 200 µM

## CCCCc1nn(-c2ccccc2-c2ccccc2)c(C(=O)O)c1Cc1ccc(-c2ccccc2-c2nnn[nH]2)cc1
Dipeptidase 1
  Ki: 420 µM
[1]
  IC50: 180 µM
Beta-lactamase
  IC50: 65 µM

## CCCCc1nn(-c2cc(Cl)ccc2Cl)c(C(=O)O)c1Cc1ccc(-c2ccccc2-c2nnn[nH]2)cc1
Dipeptidase 1
  Ki: 380 µM
[1]
  IC50: 50 µM
Beta-lactamase
  IC50: > 200 µM

## CCCCc1nn(-c2ccccc2)c(C(=O)O)c1Cc1ccc(-c2ccccc2-c2nn[nH]n2)cc1
Dipeptidase 1
  Ki: 590 µM
[1]
  IC50: 200 µM
Beta-lactamase
  IC50: > 200 µM

## CCCCc1nn(-c2ccccc2[N+](=O)[O-])c(C(=O)O)c1Cc1ccc(-c2ccccc2-c2nnn[nH]2)cc1
Dipeptidase 1
  Ki: 640 µM
[1]
  IC50: 120 µM
Beta-lactamase
  IC50: > 200 µM

## CCCCc1nn(-c2ccc(Cl)cc2)c(C(=O)O)c1Cc1ccc(-c2ccccc2-c2nn[nH]n2)cc1
Dipeptidase 1
  Ki: 430 µM
[1]
  IC50: 230 µM
Beta-lactamase
  IC50: > 200 µM

## CCCCc1nn(-c2ccccc2C(F)(F)F)c(C(=O)OCC)c1Cc1ccc(-c2ccccc2-c2nnn[nH]2)cc1
[1]
  IC50: 22 µM
Beta-lactamase
  IC50: > 200 µM

## CCCCc1nn(-c2cccc(Cl)c2)c(C(=O)O)c1Cc1ccc(-c2ccccc2-c2nn[nH]n2)cc1
Dipeptidase 1
  Ki: 425 µM
[1]
  IC50: 190 µM
Beta-lactamase
  IC50: > 200 µM

## CCCCc1nn(-c2ccccc2C(F)(F)F)c(C(=O)O)c1Cc1ccc(-c2ccccc2-c2nnn[nH]2)cc1
Dipeptidase 1
  Ki: 380 µM
[1]
  IC50: 40 µM
Beta-lactamase
  IC50: > 200 µM

## CCCCc1nn(-c2ccccc2C)c(C(=O)OCC)c1Cc1ccc(-c2ccccc2-c2nn[nH]n2)cc1
[1]
  IC50: 70 µM
Beta-lactamase
  IC50: > 200 µM

## CCCCc1nn(-c2ccc(Cl)cc2Cl)c(C(=O)O)c1Cc1ccc(-c2ccccc2-c2nn[nH]n2)cc1
Dipeptidase 1
  Ki: 400 µM
[1]
  IC50: 80 µM
Beta-lactamase
  IC50: > 200 µM

## CCCCc1nn(-c2ccc(Cl)cc2Cl)c(C(=O)OCC)c1Cc1ccc(-c2ccccc2-c2nnn[nH]2)cc1
Dipeptidase 1
  Ki: 480 µM
[1]
  IC50: 100 µM
Beta-lactamase
  IC50: 66 µM

## CCCCc1nn(-c2ccccc2)c(C(=O)OCC)c1Cc1ccc(-c2ccccc2-c2nnn[nH]2)cc1
Dipeptidase 1
  Ki: 250 µM
[1]
  IC50: 100 µM
Beta-lactamase
  IC50: > 200 µM

## CCCCc1nn(-c2ccccc2[N+](=O)[O-])c(C(=O)OCC)c1Cc1ccc(-c2ccccc2-c2nnn[nH]2)cc1
[1]
  IC50: 18 µM
Beta-lactamase
  IC50: > 200 µM

## CCCCc1nn(-c2cccc(Cl)c2Cl)c(C(=O)O)c1Cc1ccc(-c2ccccc2-c2nnn[nH]2)cc1
Dipeptidase 1
  Ki: 310 µM
[1]
  IC50: 37 µM
Beta-lactamase
  IC50: > 200 µM

## CCCCc1nn(-c2c(Cl)cc(Cl)cc2Cl)c(C(=O)OCC)c1Cc1ccc(-c2ccccc2-c2nn[nH]n2)cc1
Dipeptidase 1
  Ki: 450 µM
[1]
  IC50: 80 µM
Beta-lactamase
  IC50: > 200 µM

## CCCCc1nn(-c2c(Cl)cccc2Cl)c(C(=O)O)c1Cc1ccc(-c2ccccc2-c2nnn[nH]2)cc1
Dipeptidase 1
  Ki: 500 µM
[1]
  IC50: 100 µM
Beta-lactamase
  IC50: > 200 µM

## CCCCc1nn(-c2cccc(Cl)c2Cl)c(C(=O)OCC)c1Cc1ccc(-c2ccccc2-c2nnn[nH]2)cc1
Dipeptidase 1
  Ki: 170 µM
[1]
  IC50: 100 µM
Beta-lactamase
  IC50: 175 µM

## CCCCc1nn(-c2cc(Cl)ccc2Cl)c(C(=O)OCC)c1Cc1ccc(-c2ccccc2-c2nn[nH]n2)cc1
Dipeptidase 1
  Ki: 80 µM
[1]
  IC50: 100 µM
Beta-lactamase
  IC50: 60 µM

## CCCCc1nn(-c2ccccc2-c2ccccc2)c(C(=O)OCC)c1Cc1ccc(-c2ccccc2-c2nn[nH]n2)cc1
[1]
  IC50: > 200 µM
Beta-lactamase
  IC50: 150 µM

## CCCCc1nn(-c2c(Cl)cc(Cl)cc2Cl)c(C(=O)O)c1Cc1ccc(-c2ccccc2-c2nnn[nH]2)cc1
Dipeptidase 1
  Ki: 800 µM
[1]
  IC50: 33 µM
Beta-lactamase
  IC50: > 200 µM

## CCCCc1nn(-c2ccc(Cl)cc2)c(C(=O)OCC)c1Cc1ccc(-c2ccccc2-c2nn[nH]n2)cc1
Dipeptidase 1
  Ki: 380 µM
[1]
  IC50: 290 µM
Beta-lactamase
  IC50: 70 µM

## CCCCc1nn(-c2ccccc2Cl)c(C(=O)O)c1Cc1ccc(-c2ccccc2-c2nn[nH]n2)cc1
Dipeptidase 1
  Ki: 350 µM
[1]
  IC50: 30 µM
Beta-lactamase
  IC50: > 200 µM

## CCCCc1nn(-c2ccccc2C)c(C(=O)O)c1Cc1ccc(-c2ccccc2-c2nn[nH]n2)cc1
Dipeptidase 1
  Ki: 470 µM
[1]
  IC50: 80 µM
Beta-lactamase
  IC50: > 200 µM

## CCCCc1nn(-c2cccc(Cl)c2)c(C(=O)OCC)c1Cc1ccc(-c2ccccc2-c2nn[nH]n2)cc1
Dipeptidase 1
  Ki: 450 µM
[1]
  IC50: 170 µM
Beta-lactamase
  IC50: 76 µM
